± gives the expanded uncertainty stated by the source.
Key:
[1] = 298.15 K; 101.33 kPa; Liquid; Vibrating tube method
[2] = refractive index (Na D-line) (dimensionless); conditions: 298.15 K; 101.33 kPa; Liquid; Standard Abbe refractometry

| Compound | mass density [1] [kg/m3] | refractive index [2] |
| --- | --- | --- |
| CCCC[n+]1ccc(C)cc1.N#CC(=C=[N-])C#N [1-butyl-4-methylpyridinium tricyanomethanide] | 1036.68 ± 1.3 |  |
| CC(C)=O [acetone] | 785.23 ± 1 | 1.356 ± 0.0007 |
| CCCCCCC [heptane] | 679.48 ± 1 | 1.38519 ± 0.00073 |
| CCCO [propan-1-ol] | 799.52 ± 1 | 1.38375 ± 0.00072 |
| c1ccncc1 [pyridine] | 982.85 ± 1 | 1.5094 ± 0.00072 |

— the NIST ThermoML archive (doi:10.1016/j.fluid.2015.03.027)
